From article PMC5513037, “Examining the influence of specificity ligands and ATP-competitive ligands on the overall effectiveness of bivalent kinase inhibitors” (Proteome Science, 2017) come the findings set out here.

The subject of one assay is ABL1. Nature of the assay: KAM-matrix competition in K562 lysate. The format is binding, human. The procedure: For synthesis of KAM-derivatized resin, packed NHS-activated sepharose 4 fast flow resin (volume = 2 mL; GE Healthcare) was washed with anhydrous DMSO (3 × 10 mL). To the washed NHS-activated sepharose resin was added 0.5 mM KAM in anhydrous DMSO (8 mL; 2 μmol compound/mL of resin), followed by the addition of triethylamine (30 μL). The reaction mixture was vortexed to mix and pelleted by centrifugation (100 x g, 2 min). An aliquot of the supernatant (50 μL) was saved for LC/MS analysis. The reaction mixture was allowed incubate overnight at room temp with end-over-end rotating agitation. On the following day, the reaction mixture was pelleted by centrifugation (100 x g, 2 min). An aliquot of the supernatant (50 μL) was saved for LC/MS analysis. […] 2-(2-Aminoethoxy)ethanol (100 μL; Sigma-Aldrich) was added to the reaction mixture, vortexed, and incubate overnight at room temp with end-over-end agitation. The KAM-derivatized resin was then washed with anhydrous DMSO (3 × 10 mL) and 95% EtOH (3 × 10 mL).
Data were visualized for further analysis using Spotfire DXP.

The next assay has as its target T1, CDK5 (Homo sapiens, UniProt Q00535).
T1 construct: endogenous in cells; host or cells: K562
Nature of the assay: KAM-matrix competition in K562 lysate. Type of assay: binding. The procedure: (§1) Supplement 12953_2017_125_MOESM1_ESM.zip/MS_Supp Info.xlsx, sheet "KAM" | column: 10 uM KAM; 1 uM KAM; 0.1 uM KAM; 0.01 uM KAM; 0.001 uM KAM; RB50

The target of a further assay is T2, JAK2 (Homo sapiens, UniProt O60674).
T2 construct: endogenous in cells; host or cells: K562
T2 sequence (O60674 whole entry): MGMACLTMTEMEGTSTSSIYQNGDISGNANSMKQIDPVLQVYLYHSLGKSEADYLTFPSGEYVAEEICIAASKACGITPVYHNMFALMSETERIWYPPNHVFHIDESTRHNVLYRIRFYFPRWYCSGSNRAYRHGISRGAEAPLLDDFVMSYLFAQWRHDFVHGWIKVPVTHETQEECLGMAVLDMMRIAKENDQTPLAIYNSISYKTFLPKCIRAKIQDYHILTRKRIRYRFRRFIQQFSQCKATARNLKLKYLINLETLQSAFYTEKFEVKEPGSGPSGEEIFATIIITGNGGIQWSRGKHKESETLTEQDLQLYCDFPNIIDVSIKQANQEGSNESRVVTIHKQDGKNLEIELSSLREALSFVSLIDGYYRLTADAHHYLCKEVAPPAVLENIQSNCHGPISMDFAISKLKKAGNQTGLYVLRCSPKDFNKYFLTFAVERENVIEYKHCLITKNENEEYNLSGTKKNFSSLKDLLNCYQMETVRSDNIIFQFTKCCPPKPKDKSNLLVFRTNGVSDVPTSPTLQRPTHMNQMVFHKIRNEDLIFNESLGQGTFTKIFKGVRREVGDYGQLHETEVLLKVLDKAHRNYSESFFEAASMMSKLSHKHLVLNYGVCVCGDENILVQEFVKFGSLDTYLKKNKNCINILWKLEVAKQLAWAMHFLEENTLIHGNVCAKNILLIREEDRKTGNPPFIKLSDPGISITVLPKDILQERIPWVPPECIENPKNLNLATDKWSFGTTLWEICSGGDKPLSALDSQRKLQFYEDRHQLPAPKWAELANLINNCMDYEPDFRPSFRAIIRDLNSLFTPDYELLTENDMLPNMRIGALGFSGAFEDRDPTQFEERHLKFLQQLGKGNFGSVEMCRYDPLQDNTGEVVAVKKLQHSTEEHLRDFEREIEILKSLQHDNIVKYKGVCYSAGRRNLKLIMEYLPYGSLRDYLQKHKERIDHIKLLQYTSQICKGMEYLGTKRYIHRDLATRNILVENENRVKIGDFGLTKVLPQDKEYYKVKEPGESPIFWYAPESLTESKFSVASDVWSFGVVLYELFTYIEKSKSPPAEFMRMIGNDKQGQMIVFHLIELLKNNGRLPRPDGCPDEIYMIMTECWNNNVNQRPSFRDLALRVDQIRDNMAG
Briefly: KAM-matrix competition in K562 lysate. Type of assay: binding. The method, then: as §1

The target of a further assay is T3, PRPF4B (Homo sapiens, UniProt Q13523).
T3 construct: endogenous in cells; host or cells: K562
T3 sequence (Q13523 whole entry): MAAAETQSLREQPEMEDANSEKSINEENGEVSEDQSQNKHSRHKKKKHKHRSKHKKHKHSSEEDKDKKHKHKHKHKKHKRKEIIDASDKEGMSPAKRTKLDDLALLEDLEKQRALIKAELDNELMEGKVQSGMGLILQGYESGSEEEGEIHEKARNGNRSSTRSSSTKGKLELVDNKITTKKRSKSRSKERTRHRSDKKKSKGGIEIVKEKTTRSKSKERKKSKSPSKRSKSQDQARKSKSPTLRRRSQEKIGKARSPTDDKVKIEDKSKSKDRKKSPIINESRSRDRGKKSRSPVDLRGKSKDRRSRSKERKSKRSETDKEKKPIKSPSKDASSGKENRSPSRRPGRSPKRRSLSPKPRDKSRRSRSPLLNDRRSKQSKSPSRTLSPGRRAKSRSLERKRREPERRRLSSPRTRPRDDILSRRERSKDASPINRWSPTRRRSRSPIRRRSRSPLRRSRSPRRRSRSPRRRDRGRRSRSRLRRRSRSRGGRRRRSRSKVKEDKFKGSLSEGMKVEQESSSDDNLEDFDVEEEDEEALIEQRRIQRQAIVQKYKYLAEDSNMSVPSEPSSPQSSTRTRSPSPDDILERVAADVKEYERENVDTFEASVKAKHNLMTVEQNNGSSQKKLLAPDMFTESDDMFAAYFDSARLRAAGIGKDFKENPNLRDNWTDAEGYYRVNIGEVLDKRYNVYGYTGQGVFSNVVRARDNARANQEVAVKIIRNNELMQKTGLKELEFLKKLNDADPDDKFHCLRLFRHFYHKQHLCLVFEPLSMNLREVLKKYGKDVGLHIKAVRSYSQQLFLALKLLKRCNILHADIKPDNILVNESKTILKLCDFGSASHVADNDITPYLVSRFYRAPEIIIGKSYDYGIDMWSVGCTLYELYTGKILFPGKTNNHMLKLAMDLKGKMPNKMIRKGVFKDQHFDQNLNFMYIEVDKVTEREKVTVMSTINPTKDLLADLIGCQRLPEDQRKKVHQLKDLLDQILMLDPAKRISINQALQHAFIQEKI
Briefly: KAM-matrix competition in K562 lysate. The format is binding. The method, then:
as §1

For a further assay, the target named is T4, TAF1L (Homo sapiens, UniProt Q8IZX4).
T4 construct: endogenous in cells; host or cells: K562
Briefly: KAM-matrix competition in K562 lysate. The format is binding. As to conditions: relative to 0 uM KAM = 0. The method, then: Supplement 12953_2017_125_MOESM1_ESM.zip/MS_Supp Info.xlsx, sheet "KAM" | column: 1 uM KAM; 0.01 uM KAM

In the next assay the target is T5, PIK3R4 (Homo sapiens, UniProt Q99570).
T5 construct: endogenous in cells; host or cells: K562
Briefly: Imatinib-matrix competition in K562 lysate. Conditions: read-out: RB50 (the source's name). Type of assay: binding.

Another assay concerns the target PSKH1 (Homo sapiens, UniProt P11801). Briefly: biochemical.
A further assay concerns the target ATM (Homo sapiens, UniProt Q13315). Briefly: biochemical.
For a further assay, the target named is BRDT (Homo sapiens, UniProt Q58F21). Briefly: biochemical.
For a further assay, the target named is T6, SCYL1 (Homo sapiens, UniProt Q96KG9).
T6 sequence (Q96KG9 1-808): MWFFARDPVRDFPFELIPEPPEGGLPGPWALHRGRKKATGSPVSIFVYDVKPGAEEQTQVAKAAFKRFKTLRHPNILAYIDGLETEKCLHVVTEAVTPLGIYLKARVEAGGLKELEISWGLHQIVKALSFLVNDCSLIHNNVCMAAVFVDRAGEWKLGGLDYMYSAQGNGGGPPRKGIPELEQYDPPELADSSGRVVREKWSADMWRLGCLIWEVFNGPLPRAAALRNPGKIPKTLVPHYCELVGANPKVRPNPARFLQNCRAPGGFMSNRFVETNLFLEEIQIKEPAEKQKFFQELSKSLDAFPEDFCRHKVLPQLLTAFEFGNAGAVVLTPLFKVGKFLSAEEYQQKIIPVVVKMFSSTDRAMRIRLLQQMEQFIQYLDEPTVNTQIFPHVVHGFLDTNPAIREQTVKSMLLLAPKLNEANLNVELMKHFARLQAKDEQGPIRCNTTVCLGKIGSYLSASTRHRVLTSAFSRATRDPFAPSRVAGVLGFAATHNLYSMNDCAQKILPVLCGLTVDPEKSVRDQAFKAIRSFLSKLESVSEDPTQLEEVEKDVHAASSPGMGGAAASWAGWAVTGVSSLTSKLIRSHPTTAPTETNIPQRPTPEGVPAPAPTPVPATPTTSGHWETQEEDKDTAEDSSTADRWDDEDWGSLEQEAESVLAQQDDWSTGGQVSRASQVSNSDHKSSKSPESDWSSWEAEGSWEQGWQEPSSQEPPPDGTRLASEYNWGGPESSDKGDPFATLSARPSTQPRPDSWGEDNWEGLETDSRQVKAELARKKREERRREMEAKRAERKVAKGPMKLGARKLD
Nature of the assay: biochemical.

The target of a further assay is PSKH2 (Homo sapiens, UniProt Q96QS6). Nature of the assay: biochemical.
The target in the next assay is NRBP1 (Homo sapiens, UniProt Q9UHY1). Briefly: biochemical.
Setting [1] is: read-out: RB50 (the source's name).

A value given as a limit tells only on which side of the number the result lay.
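Wherever 0.01 uM KAM is given: median log10 fold change of treatment over DMSO control.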
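Wherever 1 uM KAM is given: median log10 fold change of treatment over DMSO control.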

T1 sequence (Q00535 whole entry): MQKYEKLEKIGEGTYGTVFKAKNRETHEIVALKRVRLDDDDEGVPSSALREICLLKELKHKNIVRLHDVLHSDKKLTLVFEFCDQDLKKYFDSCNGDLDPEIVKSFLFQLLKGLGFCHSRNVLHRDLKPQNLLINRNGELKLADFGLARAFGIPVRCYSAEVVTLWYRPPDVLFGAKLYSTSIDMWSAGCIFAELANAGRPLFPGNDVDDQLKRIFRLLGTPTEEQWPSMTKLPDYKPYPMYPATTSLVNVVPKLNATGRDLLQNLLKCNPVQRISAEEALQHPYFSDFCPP
Chain of ABL1 (P00519 28-1130): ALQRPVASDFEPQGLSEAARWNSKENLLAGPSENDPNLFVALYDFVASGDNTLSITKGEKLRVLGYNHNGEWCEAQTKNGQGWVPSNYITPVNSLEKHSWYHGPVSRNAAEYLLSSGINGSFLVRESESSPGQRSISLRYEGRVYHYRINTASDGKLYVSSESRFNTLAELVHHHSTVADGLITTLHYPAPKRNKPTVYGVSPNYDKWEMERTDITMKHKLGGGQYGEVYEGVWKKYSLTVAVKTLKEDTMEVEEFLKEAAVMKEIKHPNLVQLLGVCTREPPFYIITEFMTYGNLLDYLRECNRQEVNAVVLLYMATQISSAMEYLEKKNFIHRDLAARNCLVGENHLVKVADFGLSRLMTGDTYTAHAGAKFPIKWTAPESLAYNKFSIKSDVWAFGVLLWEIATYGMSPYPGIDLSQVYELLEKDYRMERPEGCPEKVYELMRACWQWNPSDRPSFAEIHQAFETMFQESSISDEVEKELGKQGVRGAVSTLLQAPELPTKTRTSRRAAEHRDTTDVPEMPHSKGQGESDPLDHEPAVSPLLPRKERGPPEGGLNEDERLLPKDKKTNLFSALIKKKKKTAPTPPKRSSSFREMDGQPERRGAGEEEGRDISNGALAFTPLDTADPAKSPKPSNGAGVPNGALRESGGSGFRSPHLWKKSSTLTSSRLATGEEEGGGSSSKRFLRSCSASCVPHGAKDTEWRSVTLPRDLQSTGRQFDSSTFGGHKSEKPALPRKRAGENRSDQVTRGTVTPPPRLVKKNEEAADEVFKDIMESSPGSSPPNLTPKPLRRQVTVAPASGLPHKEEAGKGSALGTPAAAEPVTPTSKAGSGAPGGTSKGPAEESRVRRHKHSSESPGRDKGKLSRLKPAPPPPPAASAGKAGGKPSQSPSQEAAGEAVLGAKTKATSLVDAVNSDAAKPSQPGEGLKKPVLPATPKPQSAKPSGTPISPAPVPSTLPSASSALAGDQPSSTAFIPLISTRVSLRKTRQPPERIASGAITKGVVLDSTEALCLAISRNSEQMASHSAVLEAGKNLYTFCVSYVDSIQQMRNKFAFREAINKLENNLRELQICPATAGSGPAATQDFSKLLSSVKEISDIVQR
Chain of ABL1 (P11274 1-927 partner): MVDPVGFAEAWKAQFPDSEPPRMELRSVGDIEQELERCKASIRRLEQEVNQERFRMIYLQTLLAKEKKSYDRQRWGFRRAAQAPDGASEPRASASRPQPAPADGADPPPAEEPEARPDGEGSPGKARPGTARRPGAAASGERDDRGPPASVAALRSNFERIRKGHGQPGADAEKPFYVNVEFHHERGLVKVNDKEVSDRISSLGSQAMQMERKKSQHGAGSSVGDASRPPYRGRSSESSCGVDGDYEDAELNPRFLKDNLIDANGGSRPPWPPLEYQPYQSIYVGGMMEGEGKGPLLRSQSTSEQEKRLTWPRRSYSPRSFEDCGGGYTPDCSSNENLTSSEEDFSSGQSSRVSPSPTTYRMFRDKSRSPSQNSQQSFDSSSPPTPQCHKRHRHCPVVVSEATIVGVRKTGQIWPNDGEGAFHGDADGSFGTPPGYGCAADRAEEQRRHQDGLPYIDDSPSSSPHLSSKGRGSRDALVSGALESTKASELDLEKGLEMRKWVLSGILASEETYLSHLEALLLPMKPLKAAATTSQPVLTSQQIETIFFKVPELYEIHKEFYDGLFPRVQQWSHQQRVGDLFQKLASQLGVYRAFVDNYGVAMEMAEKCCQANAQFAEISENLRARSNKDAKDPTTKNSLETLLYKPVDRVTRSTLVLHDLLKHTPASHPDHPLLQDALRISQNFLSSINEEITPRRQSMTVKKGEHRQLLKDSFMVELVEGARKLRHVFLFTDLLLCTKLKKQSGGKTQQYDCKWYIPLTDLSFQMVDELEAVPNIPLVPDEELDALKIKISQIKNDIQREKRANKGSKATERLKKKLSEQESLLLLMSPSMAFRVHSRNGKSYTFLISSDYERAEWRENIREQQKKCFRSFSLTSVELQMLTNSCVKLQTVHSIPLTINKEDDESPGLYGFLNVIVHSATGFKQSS
Chain of PSKH1 (P11801 whole entry): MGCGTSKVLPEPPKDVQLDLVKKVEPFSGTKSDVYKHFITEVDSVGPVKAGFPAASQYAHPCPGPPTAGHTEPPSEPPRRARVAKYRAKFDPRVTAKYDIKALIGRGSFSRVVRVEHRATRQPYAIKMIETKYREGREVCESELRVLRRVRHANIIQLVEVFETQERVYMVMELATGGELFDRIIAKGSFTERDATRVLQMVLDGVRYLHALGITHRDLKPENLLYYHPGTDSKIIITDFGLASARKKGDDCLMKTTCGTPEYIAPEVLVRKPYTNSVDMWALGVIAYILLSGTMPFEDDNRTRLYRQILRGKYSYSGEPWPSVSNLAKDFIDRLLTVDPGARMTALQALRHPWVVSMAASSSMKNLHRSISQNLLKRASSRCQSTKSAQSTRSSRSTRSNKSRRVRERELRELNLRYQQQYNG

For the compound `N#CCc1ccc(Nc2nc(NCCCN)cc(Nc3cc(C4CC4)[nH]n3)n2)cc1` [KAM], the “median Log10 fold change” value was -0.005017 in the assay with ABL1 (0.001 uM KAM); -0.004253 in the assay with ABL1 (0.01 uM KAM); -0.1612 in the assay on ABL1 (0.1 uM KAM); -0.353 in the assay with ABL1 (1 uM KAM); -0.4826 with ABL1 (10 uM KAM); 0.003574 at CDK5 (0.001 uM KAM). In addition, the “median Log10 fold change” value on CDK5 (0.01 uM KAM) was 0.001841; at CDK5 (0.1 uM KAM), -0.2018; at CDK5 (1 uM KAM), -0.5013; at CDK5 (10 uM KAM), -0.5902; on JAK2 (0.001 uM KAM) it was -0.002638; at JAK2 (0.01 uM KAM), -0.00181. Also, the “median Log10 fold change” value on JAK2 (0.1 uM KAM) is recorded as -0.159; at JAK2 (1 uM KAM), -0.3349; at JAK2 (10 uM KAM), -0.4311; on PRPF4B (0.001 uM KAM), -0.03755; on PRPF4B (0.01 uM KAM), -0.07792; at PRPF4B (0.1 uM KAM) it was -0.1894. Further, the figures for the “median Log10 fold change” value on PRPF4B (1 uM KAM) and at PRPF4B (10 uM KAM) were -0.2633 and -0.4136, respectively. Further, the IC50 on ABL1 (ABL1, KAM-based affinity matrix, K562 lysates, read-out: RB50 (the source's name)) is 759 nM; at CDK5 (setting [1]), 298 nM; at JAK2 (setting [1]) it was 909 nM; at PRPF4B (setting [1]), 1400 nM. The “0.01 uM KAM” value on TAF1L stood at 0.1793. The “1 uM KAM” value on TAF1L is reported as -0.2683.

On to `Cc1ccc(NC(=O)c2ccc(CN3CCN(C)CC3)cc2)cc1Nc1nccc(-c2cccnc2)n1` [Imatinib], for which the IC50 on PIK3R4, on PSKH1, against ATM, on BRDT, against SCYL1 and against PSKH2 was over 10000 nM throughout. At NRBP1, this compound gave an IC50 of over 10000 nM.
